# Laboratory results from patent publication US20210188775A1, “CARBOXAMIDE AND SULFONAMIDE DERIVATIVES USEFUL AS TEAD MODULATORS” (Genentech, Inc., priority 2018, published 2021).
# pIC50: −log10 of the molar value.
# What was measured:
# Format in all cases: binding
# TEAD3 [1] = target: T1, TEAD3 (Homo sapiens, UniProt Q99594); test: Lipid HTRF TEAD3
# TEAD4 = TEAD4 (Homo sapiens, UniProt Q15561); test: Lipid HTRF TEAD4
# TEAD1 = TEAD1 (Homo sapiens, UniProt P28347); test: Lipid HTRF TEAD1
# TEAD2 [2] = target: T2, TEAD2 (Homo sapiens, UniProt Q15562); test: Lipid HTRF TEAD2
# TEAD3 [3] = target: T1, TEAD3; test: TEAD lipid assay (Lipid FP, Bodipy-C16 probe displacement); conditions: fluorescence polarization, His-tagged TEAD, 60 minutes incubation
# Method: (§1) A TEAD lipid assay was done according to the following method. His-tagged TEAD proteins were pre-incubated with a Bodipy-C16 FP probe (Life Technologies Cat #D3821) for 30 minutes at room temperature to pre-form TEAD-probe complex. […] Duplicate 10 point dose response curves were generated for each test compound. The potency of compounds as TEAD lipid pocket binders was determined by IC50 value generated using a non-linear 4 parameter curve fit.
# TEAD2 [4] = target: T2, TEAD2; test: as above; conditions: fluorescence polarization, His-tagged TEAD, 60 minutes incubation
# Method: as §1
# TEAD4, sequence (Q15561 whole entry, species assumed): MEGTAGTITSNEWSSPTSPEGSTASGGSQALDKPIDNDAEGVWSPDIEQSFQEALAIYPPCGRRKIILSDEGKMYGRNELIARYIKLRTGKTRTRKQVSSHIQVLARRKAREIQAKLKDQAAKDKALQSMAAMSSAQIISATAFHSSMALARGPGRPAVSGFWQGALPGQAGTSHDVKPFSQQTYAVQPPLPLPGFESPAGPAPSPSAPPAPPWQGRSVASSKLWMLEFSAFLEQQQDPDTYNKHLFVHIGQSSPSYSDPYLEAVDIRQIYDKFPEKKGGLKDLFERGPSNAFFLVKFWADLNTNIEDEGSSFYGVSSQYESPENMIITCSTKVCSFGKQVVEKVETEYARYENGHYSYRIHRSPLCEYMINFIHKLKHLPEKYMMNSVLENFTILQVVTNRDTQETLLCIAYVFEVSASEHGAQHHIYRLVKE
# TEAD1, sequence (P28347 whole entry, species assumed): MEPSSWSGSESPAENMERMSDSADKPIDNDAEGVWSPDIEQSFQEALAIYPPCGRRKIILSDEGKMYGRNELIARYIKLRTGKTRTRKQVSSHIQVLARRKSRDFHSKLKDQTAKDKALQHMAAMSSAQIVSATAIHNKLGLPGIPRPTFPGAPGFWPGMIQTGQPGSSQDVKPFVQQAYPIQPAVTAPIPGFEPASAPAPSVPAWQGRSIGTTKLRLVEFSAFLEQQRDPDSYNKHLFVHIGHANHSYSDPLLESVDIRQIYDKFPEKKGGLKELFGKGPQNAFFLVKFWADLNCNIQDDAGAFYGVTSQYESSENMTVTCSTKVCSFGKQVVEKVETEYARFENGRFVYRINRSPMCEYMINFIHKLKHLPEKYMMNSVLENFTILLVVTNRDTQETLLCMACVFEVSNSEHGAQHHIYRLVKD
# T2 sequence (Q15562 whole entry, species assumed): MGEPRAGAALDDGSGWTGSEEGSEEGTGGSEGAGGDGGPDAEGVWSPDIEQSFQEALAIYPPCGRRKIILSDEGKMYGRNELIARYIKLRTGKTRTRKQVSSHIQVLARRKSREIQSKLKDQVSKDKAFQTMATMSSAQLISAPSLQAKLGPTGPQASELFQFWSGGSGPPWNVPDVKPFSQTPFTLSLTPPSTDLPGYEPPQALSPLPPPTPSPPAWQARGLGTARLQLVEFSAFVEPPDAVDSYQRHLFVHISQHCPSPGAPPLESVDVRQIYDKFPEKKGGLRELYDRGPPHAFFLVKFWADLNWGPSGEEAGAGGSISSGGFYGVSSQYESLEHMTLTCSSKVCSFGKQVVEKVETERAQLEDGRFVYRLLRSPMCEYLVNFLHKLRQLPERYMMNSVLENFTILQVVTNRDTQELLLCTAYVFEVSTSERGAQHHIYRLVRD
# T1 sequence (Q99594 whole entry, species assumed): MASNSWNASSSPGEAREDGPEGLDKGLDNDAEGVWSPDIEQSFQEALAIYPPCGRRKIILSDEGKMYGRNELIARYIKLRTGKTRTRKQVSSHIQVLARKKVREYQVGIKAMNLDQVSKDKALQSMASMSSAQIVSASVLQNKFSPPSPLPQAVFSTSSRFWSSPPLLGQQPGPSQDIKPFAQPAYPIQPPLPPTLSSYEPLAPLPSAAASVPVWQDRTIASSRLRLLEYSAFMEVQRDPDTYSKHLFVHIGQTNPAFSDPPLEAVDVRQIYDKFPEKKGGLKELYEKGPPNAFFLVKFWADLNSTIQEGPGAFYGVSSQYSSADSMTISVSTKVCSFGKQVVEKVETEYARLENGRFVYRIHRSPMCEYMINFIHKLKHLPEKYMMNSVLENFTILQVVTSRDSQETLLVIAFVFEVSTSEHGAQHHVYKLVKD
smiles,measurement,setting,value
"CNC(=O)Cc1cccc(CNC(=O)c2cnc(OC)c(/C=C/[C@H]3CC[C@H](C(F)(F)F)CC3)c2)c1 [Compound 56B, 6-methoxy-N-(3-(2-(methylamino)-2-oxoethyl)benzyl)-5-((E)-2-(trans-4-(trifluoromethyl)cyclohexyl)vinyl) nicotinamide]",pIC50,TEAD3 [1],5.68
same,pIC50,TEAD4,7.41
same,pIC50,TEAD1,6.71
same,pIC50,TEAD2 [2],7.51
"CNC(=O)Cc1cccc(CNC(=O)c2cc(/C=C/[C@H]3CC[C@@H](C(F)(F)F)CC3)c(OC)cn2)c1 [Compound 57A, 5-Methoxy-N-(3-(2-(methylamino)-2-oxoethyl)benzyl)-4-((E)-2-(cis-4-(trifluoromethyl)cyclohexyl)vinyl) picolinamide]",pIC50,TEAD3 [1],6.06
same,pIC50,TEAD4,6.88
same,pIC50,TEAD1,6.41
same,pIC50,TEAD2 [2],7.34
"CNC(=O)Cc1cccc(CNC(=O)c2cc(/C=C/C3CCC(F)(F)CC3)c(OC)cn2)c1 [Compound 55, (E)-4-(2-(4,4-Difluorocyclohexyl)vinyl)-5-methoxy-N-(3-(2-(methylamino)-2-oxoethyl)benzyl)picolinamide]",pIC50,TEAD3 [1],6.64
same,pIC50,TEAD4,7.14
same,pIC50,TEAD1,6.70
same,pIC50,TEAD2 [2],7.05
"CNC(=O)Cc1cccc(CNC(=O)c2cc(/C=C/[C@H]3CC[C@H](C(F)(F)F)CC3)c(OC)cn2)c1 [Compound 57B, 5-methoxy-N-(3-(2-(methylamino)-2-oxoethyl)benzyl)-4-((E)-2-(trans-4-(trifluoromethyl)cyclohexyl)vinyl) picolinamide]",pIC50,TEAD3 [1],6.53
same,pIC50,TEAD4,7.72
same,pIC50,TEAD1,6.89
same,pIC50,TEAD2 [2],7.77
"C=CS(=O)(=O)Nc1cnc(OC)c(/C=C/C2CCC(F)(F)CC2)c1 [Compound 58, N-[5-[(E)-2-(4,4-difluorocyclohexyl)vinyl]-6-methoxy-3-pyridyl]ethenesulfonamide]",pIC50,TEAD3 [1],7.47
same,pIC50,TEAD4,8.10
same,pIC50,TEAD1,7.47
same,pIC50,TEAD2 [2],8.00
"CS(=O)(=O)Nc1cnc(C2CC2)c(/C=C/C2CCC(F)(F)CC2)c1 [Compound 52, N-[6-cyclopropyl-5-[(E)-2-(4,4-difluorocyclohexyl)vinyl]-3-pyridyl]methanesulfonamide]",pIC50,TEAD3 [3],4.89
same,pIC50,TEAD2 [4],5.80
"COc1cnc(NS(C)(=O)=O)cc1/C=C/C1CCC(C(F)(F)F)CC1 (centres unmarked) [Compound 48, (E)-N-(5-methoxy-4-(2-(4-(trifluoromethyl)cyclohexyl)vinyl)pyridin-2-yl)methanesulfonamide]",pIC50,TEAD3 [3],5.80
same,pIC50,TEAD2 [4],5.96
"Cc1cn(Cc2ccc(Cl)cc2)c2cc(NS(=O)(=O)C3CC3)ccc12 [Compound 23, N-[1-[(4-chlorophenyl)methyl]-3-methyl-indol-6-yl]cyclopropanesulfonamide]",pIC50,TEAD3 [3],6.08
same,pIC50,TEAD2 [4],5.92
"COc1nc(F)c(NS(C)(=O)=O)cc1/C=C/C1CCC(F)(F)CC1 [Compound 39, N-[5-[(E)-2-(4,4-difluorocyclohexyl)vinyl]-2-fluoro-6-methoxy-3-pyridyl]methanesulfonamide]",pIC50,TEAD3 [3],6.01
same,pIC50,TEAD2 [4],6.26
"COc1ncc(C(=O)NC(C)CCO)cc1/C=C/c1ccc(Cl)cc1 (single isomer, unassigned) [Compound 19, 5-[(E)-2-(4-chlorophenyl)vinyl]-N-(3-hydroxy-1-methyl-propyl)-6-methoxy-pyridine-3-carboxamide]",pIC50,TEAD3 [3],5.80
same,pIC50,TEAD2 [4],5.72
"COc1ccc(NS(C)(=O)=O)cc1/C=C/C1CCC(C)(C)CC1 [Compound 5, N-[3-[(E)-2-(4,4-dimethylcyclohexyl)vinyl]-4-methoxy-phenyl]methanesulfonamide]",pIC50,TEAD3 [3],6.11
same,pIC50,TEAD2 [4],6.22
"COc1ccc(C(N)=O)cc1/C=C/Cc1ccccc1 [Compound 32, 4-methoxy-3-[(E)-3-phenylprop-1-enyl]benzamide]",pIC50,TEAD3 [3],5.85
same,pIC50,TEAD2 [4],6.21
"COc1ccc(NS(C)(=O)=O)cc1/C=C/C1CCCCC1 [Compound 27, N-[3-[(E)-2-cyclohexylvinyl]-4-methoxy-phenyl]methanesulfonamide]",pIC50,TEAD3 [3],5.92
same,pIC50,TEAD2 [4],6.00
"COc1cc(F)c(NS(=O)(=O)C2CC2)cc1/C=C/c1ccc(Cl)cc1 [Compound 10, N-[5-[(E)-2-(4-chlorophenyl)vinyl]-2-fluoro-4-methoxy-phenyl]cyclopropanesulfonamide]",pIC50,TEAD3 [3],5.72
same,pIC50,TEAD2 [4],5.96
"CNC(=O)Cc1cccc(CNC(=O)c2cnc(OC)c(/C=C/[C@H]3CC[C@@H](C(F)(F)F)CC3)c2)c1 [Compound 56A, 6-Methoxy-N-(3-(2-(methylamino)-2-oxoethyl)benzyl)-5-((E)-2-(cis-4-(trifluoromethyl)cyclohexyl)vinyl)nicotinamide]",pIC50,TEAD3 [1],4.82
same,pIC50,TEAD4,6.45
same,pIC50,TEAD1,6.15
same,pIC50,TEAD2 [2],7.10
"COc1ccc(NS(C)(=O)=O)cc1[C@H]1C[C@H](c2ccc(Cl)cc2)C1 (single isomer, unassigned) [Compound 7A]",pIC50,TEAD3 [3],5.77
same,pIC50,TEAD2 [4],6.04
"COc1ncc(NS(C)(=O)=O)cc1/C=C/CC(C)C [Compound 15, N-[6-methoxy-5-[(E)-4-methylpent-1-enyl]-3-pyridyl]methanesulfonamide]",pIC50,TEAD3 [3],5.70
same,pIC50,TEAD2 [4],5.92
"CNC(=O)Cc1cccc(CNC(=O)c2cnc(OC)c(/C=C/C3CCC(F)(F)CC3)c2)c1 [Compound 54, (E)-5-(2-(4,4-difluorocyclohexyl)vinyl)-6-methoxy-N-(3-(2-(methylamino)-2-oxoethyl)benzyl)nicotinamide]",pIC50,TEAD3 [1],5.40
same,pIC50,TEAD4,6.65
same,pIC50,TEAD1,6.50
same,pIC50,TEAD2 [2],6.84
"COc1ccc(C(=O)NC(C)C)cc1/C=C/Cc1ccccc1 [Compound 30, N-isopropyl-4-methoxy-3-[(E)-3-phenylprop-1-enyl]benzamide]",pIC50,TEAD3 [3],6.21
same,pIC50,TEAD2 [4],6.14
"COc1cnc(NS(C)(=O)=O)cc1/C=C/C1(F)CCC(F)(F)CC1 [Compound 20, N-[5-methoxy-4-[(E)-2-(1,4,4-trifluorocyclohexyl)vinyl]-2-pyridyl]methanesulfonamide]",pIC50,TEAD3 [3],6.12
same,pIC50,TEAD2 [4],5.70
"Cc1cn(Cc2ccc(Cl)cc2)c2cc(NS(C)(=O)=O)ccc12 [Compound 22, N-[1-[(4-chlorophenyl)methyl]-3-methyl-indol-6-yl]methanesulfonamide]",pIC50,TEAD3 [3],5.89
same,pIC50,TEAD2 [4],6.03
